According to ChEMBL document CHEMBL4373743, “Selective apoptosis-inducing activity of synthetic hydrocarbon-stapled SOS1 helix with d-amino acids in H358 cancer cells expressing KRASG12C” (Eur J Med Chem, 2020):
The source made the active and inactive calls. No cut-off for these calls is given here. Bridge positions count the residues as written; N and C are the ends. Square brackets hold non-standard residues; d marks the D form. Peptide text beside a SMILES is read from it. S5 = C=CCCC[C@](C)(N)C(=O)O

Legend:
GTPase KRas = GTPase KRas (Homo sapiens, UniProt P01116, G12C); experiment: Binding affinity to biotinylated N-terminal His6-tagged recombinant KRAS G12C mutant (unknown origin) by BLI method
Chain of GTPase KRas (P01116 whole entry G12C): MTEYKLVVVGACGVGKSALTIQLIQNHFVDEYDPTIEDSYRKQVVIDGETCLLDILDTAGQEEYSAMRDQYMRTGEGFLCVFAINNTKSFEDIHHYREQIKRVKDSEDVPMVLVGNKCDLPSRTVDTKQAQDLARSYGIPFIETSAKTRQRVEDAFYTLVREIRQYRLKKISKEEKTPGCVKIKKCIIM

[1] = system: GTPase KRas (Homo sapiens), P01116 [G12C]; experiment: Binding affinity to biotinylated N-terminal His6-tagged recombinant KRAS G12C mutant (unknown origin) assessed as association constant by BLI method
Chain of GTPase KRas (Homo sapiens), P01116 [G12C] (P01116 whole entry G12C): as above

[2] = system: GTPase KRas (Homo sapiens), P01116 [G12C]; experiment: Binding affinity to biotinylated N-terminal His6-tagged recombinant KRAS G12C mutant (unknown origin) assessed as dissociation constant by BLI method
NCI-H358 = experiment: Antiproliferative activity against human NCI-H358 cells harboring KRAS G12C mutant incubated for 24 hrs by MTT assay; assay type: functional, cell-based
A549 = experiment: Antiproliferative activity against human A549 cells harboring KRAS G12S mutant at 0.37 to 10 uM incubated for 24 hrs by MTT assay; assay type: functional, cell-based
[3] = system: GTPase KRas (Homo sapiens), P01116 [G12C]; experiment: Inhibition of mant-GDP bound N-terminal His6-tagged recombinant KRAS G12C mutant (unknown origin) by fluorescence based assay

| SMILES | Kd (GTPase KRas) | Ka [1] | Kdiss [2] | Activity (NCI-H358) | Activity (A549) | inhibition [3] |
| --- | --- | --- | --- | --- | --- | --- |
| CC[C@H](C)[C@H](NC(=O)CNC(=O)[C@H](Cc1ccccc1)NC(=O)[C@H](Cc1ccccc1)NC(=O)[C@H](CCCNC(=N)N)NC(=O)[C@H](CCCNC(=N)N)NC(C)=O)C(=O)N[C@@]1(C)CCC/C=C\CCC[C@@](C)(C(=O)N[C@@H](CC(C)C)C(=O)N[C@@H](CCCCN)C(=O)N[C@H](C(=O)N[C@@H](CCC(=O)O)C(=O)N[C@@H](CCC(=O)O)C(=O)NCC(=O)N[C@@H](CC(N)=O)C(=O)O)[C@@H](C)O)NC(=O)[C@H](CC(N)=O)NC(=O)[C@H]([C@@H](C)O)NC(=O)[C@H](CC(C)C)NC1=O | 47.8 µM | 2.44 ×10³ /M.s | 1.17 ×10⁻¹ /s | Dose-dependent effect | inactive | Dose-dependent effect |
| CC[C@H](C)[C@H](NC(=O)CNC(=O)[C@H](Cc1ccccc1)NC(=O)[C@H](Cc1ccccc1)NC(=O)[C@H](CCCNC(=N)N)NC(=O)[C@H](CCCNC(=N)N)NC(C)=O)C(=O)N[C@@]1(C)CCC/C=C\CCC[C@@](C)(C(=O)N[C@@H](CC(C)C)C(=O)N[C@@H](CCCCN)C(=O)N[C@H](C(=O)N[C@@H](CCC(=O)O)C(=O)N[C@@H](CCC(=O)O)C(=O)NCC(=O)N[C@@H](CC(N)=O)C(=O)O)[C@@H](C)O)NC(=O)[C@H](CC(N)=O)NC(=O)[C@H]([C@@H](C)O)NC(=O)[C@H](CC(C)C)NC(=O)[C@H](CC(=O)O)NC1=O (Ac-RRFFGI[S5]DLTN[S5]LKTEEGN-OH; staple (Z) 7-12) | 26.1 µM | 6.65 ×10³ /M.s | 1.73 ×10⁻¹ /s | – | – | – |
| CC[C@H](C)[C@H](NC(=O)CNC(=O)[C@H](Cc1ccccc1)NC(=O)[C@H](Cc1ccccc1)NC(=O)[C@H](CCCNC(=N)N)NC(=O)[C@H](CCCNC(=N)N)NC(C)=O)C(=O)N[C@@]1(C)CCC/C=C\CCC[C@@](C)(C(=O)N[C@@H](CC(C)C)C(=O)N[C@@H](CCCCN)C(=O)N[C@H](C(=O)N[C@@H](CCC(=O)O)C(=O)N[C@@H](CCC(=O)O)C(=O)NCC(=O)N[C@@H](CC(N)=O)C(=O)O)[C@@H](C)O)NC(=O)[C@H](CC(N)=O)NC(=O)[C@H]([C@@H](C)O)NC(=O)[C@H](CC(=O)O)NC(=O)[C@H](CC(C)C)NC1=O (Ac-RRFFGI[S5]LDTN[S5]LKTEEGN-OH; staple (Z) 7-12) | 3.2 µM | 3.73 ×10³ /M.s | 1.19 ×10⁻² /s | – | – | – |
| CC[C@H](C)[C@H](NC(=O)CNC(=O)[C@H](Cc1ccccc1)NC(=O)[C@H](Cc1ccccc1)NC(=O)[C@H](CCCNC(=N)N)NC(=O)[C@H](CCCNC(=N)N)NC(C)=O)C(=O)N[C@@]1(C)CCC/C=C\CCC[C@@](C)(C(=O)N[C@@H](CC(C)C)C(=O)N[C@@H](CCCCN)C(=O)N[C@H](C(=O)N[C@@H](CCC(=O)O)C(=O)N[C@@H](CCC(=O)O)C(=O)NCC(=O)N[C@@H](CC(N)=O)C(=O)O)[C@@H](C)O)NC(=O)[C@H](CC(N)=O)NC(=O)[C@H](CC(=O)O)NC(=O)[C@H]([C@@H](C)O)NC(=O)[C@H](CC(C)C)NC1=O (Ac-RRFFGI[S5]LTDN[S5]LKTEEGN-OH; staple (Z) 7-12) | 8.81 µM | 4.62 ×10³ /M.s | 4.07 ×10⁻² /s | – | – | – |
